What is called IC50 is the concentration needed to halve the response being measured. A lower IC50 goes with higher potency.

The target in the first test is T1, BaF3-Tel-IGF1-R (Homo sapiens, UniProt P08069).
T1 construct: the kinase domain of IGF-1R (aa 976-1367) linked by a Ser-Arg-linker; expressed in transfected cells; host or cells: BaF3 murine proB-cell lymphoma cells, stably transduced
T1 sequence (P08069 976-1367): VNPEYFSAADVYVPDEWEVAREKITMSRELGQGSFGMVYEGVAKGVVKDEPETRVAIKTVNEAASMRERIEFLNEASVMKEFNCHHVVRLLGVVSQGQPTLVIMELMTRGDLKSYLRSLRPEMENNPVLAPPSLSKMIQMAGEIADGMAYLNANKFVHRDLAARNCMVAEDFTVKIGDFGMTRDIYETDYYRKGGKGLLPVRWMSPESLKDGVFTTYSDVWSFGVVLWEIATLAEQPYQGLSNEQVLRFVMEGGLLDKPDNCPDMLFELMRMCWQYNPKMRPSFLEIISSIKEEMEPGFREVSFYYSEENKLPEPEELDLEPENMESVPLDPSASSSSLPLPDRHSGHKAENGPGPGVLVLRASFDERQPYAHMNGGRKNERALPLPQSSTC
Put plainly: BaF3 cell viability assay (resazurin/AlamarBlue), 96-well format. It is filed as cell-based. The following applies: 96-well plate format; 48 h incubation; resazurin dye reduction; cell proliferation/viability. From the text: BaF3-Tel-IGF1-R and BaF3-InsR are BaF3 murine proB-cell lymphoma cell derivatives [the BaF3 cell line (also termed Ba/F3) is available from the German Collection of Microorganisms and Cell Cultures (DSMZ), Braunschweig, Germany] that have been rendered IL-3-independent by stable transduction with kinase-activating fusions between human TEL (aa 1-452) and the kinase domain of IGF-1R (aa 976-1367) linked by a Ser-Arg-linker (Boulay et al, Cancer Res 68, 3743-3751, 2008), and a fusion between human TEL (aa 1-337) and the kinase domain (aa 1015-1382) of the Insulin receptor (Melnick J S et al, Proc Natl Acad Sci USA 103, 3153-3158, 2006), respectively. Cells are cultured in RPMI-1640 (Animed #1-14F01-1) supplemented with 2% L-glutamine (Animed #5-10K50-H) and 10% fetal calf serum (FCS, Animed #2-01F16-I). Wild-type, untransfected BaF3 cells are maintained in above medium plus 10 U/ml IL-3 (mouse Interleukin-3, Roche #1380745 or Invitrogen # PMC0035) and are used to identify non-selective, generally growth-inhibitory compounds. Cells (1.5×10^4 cells per well) are seeded in 190 μl fresh medium into 96-well plates. […] In addition, a plate blank value is routinely determined in a well containing only 100 μl of medium and no cells. […] Following incubation of the cells for 48 h at 37° C. and 5% CO2, the effect of inhibitors on cell viability is assessed by the resazurin sodium salt dye reduction assay (commercially known as AlamarBlue assay) basically as previously described (O'Brien J. et al., Eur. J. Biochem. 267: 5421-5426, 2000). […] Thereafter, fluorescence is measured using a Saphirell 96-well plate reader (TECAN, Männedorf, Switzerland) with the following settings: Excitation 544 nm and Emission 590 nm. […] The effect of a particular test compound concentration on cell proliferation and viability is expressed as percentage of the blank-corrected reading obtained for cells treated with vehicle only, which is set as 100%. IC50 values can be determined using XLfit (V4.2), applying standard four parameter logistic model #205 (IDBS, Guilford, UK) or other common curve-fitting software.
Turning to `Cc1cccc(N2CCC(n3c(=N)n(Cc4ccccc4Cl)c4ccccc43)CC2)c1` [Example 54, 1-(2-Chloro-benzyl)-3-(1-m-tolyl-piperidin-4-yl)-1,3-dihydro-benzoimidazol-2-ylideneamine], the concentration for half-maximal inhibition (IC50) came to 0.405 µM.

As for `Cc1cccc(N2CCC(n3c(=N)n(Cc4cc(F)ccc4Cl)c4ccccc43)CC2)c1` [Example 55, 1-(2-Chloro-5-fluoro-benzyl)-3-(1-m-tolyl-piperidin-4-yl)-1,3-dihydro-benzoimidazol-2-ylideneamine], the IC50 was 0.288 µM.

Another test addresses T1, BaF3-Tel-IGF1-R. Put plainly: BaF3 cell viability assay (resazurin), 384-well format. It is filed as cell-based. The following applies: 384-well plate format; 48 h incubation; resazurin dye reduction; cell proliferation/viability. From the text:
BaF3-Tel-IGF1-R and BaF3-InsR are BaF3 murine proB-cell lymphoma cell derivatives [the BaF3 cell line (also termed Ba/F3) is available from the German Collection of Microorganisms and Cell Cultures (DSMZ), Braunschweig, Germany] that have been rendered IL-3-independent by stable transduction with kinase-activating fusions between human TEL (aa 1-452) and the kinase domain of IGF-1R (aa 976-1367) linked by a Ser-Arg-linker (Boulay et al, Cancer Res 68, 3743-3751, 2008), and a fusion between human TEL (aa 1-337) and the kinase domain (aa 1015-1382) of the Insulin receptor (Melnick J S et al, Proc Natl Acad Sci USA 103, 3153-3158, 2006), respectively. Cells are cultured in RPMI-1640 (Animed #1-14F01-1) supplemented with 2% L-glutamine (Animed #5-10K50-H) and 10% fetal calf serum (FCS, Animed #2-01F16-I). Wild-type, untransfected BaF3 cells are maintained in above medium plus 10 U/ml IL-3 (mouse Interleukin-3, Roche #1380745 or Invitrogen # PMC0035) and are used to identify non-selective, generally growth-inhibitory compounds. Cells (1.5×10^4 cells per well) are seeded in 190 μl fresh medium into 96-well plates. 10 μl 20× compound solutions are added. As internal control, the kinase inhibitor PKC412 is routinely used. Control cells treated with DMSO (0.1% final concentration) serve as growth reference (set as 100% growth). In addition, a plate blank value is routinely determined in a well containing only […] of medium and no cells. IC50 determinations are performed based on eight 3-fold serial dilutions of the test compound, starting at 10 μM. Following incubation of the cells for 48 h at 37° C. and 5% CO2, the effect of inhibitors on cell viability is assessed by the resazurin sodium salt dye reduction assay (commercially known as AlamarBlue assay) basically as previously described (O'Brien J. et al., Eur. J. Biochem. 267: 5421-5426, 2000). Briefly, 20 μl dye solution is added per well and the plates incubated for 6 h at 37° C. and 5% CO2. Thereafter, fluorescence is measured using a Saphirell 96-well plate reader (TECAN, Männedorf, Switzerland) with the following settings: Excitation 544 nm and Emission 590 nm. For data analysis, the plate blank value is subtracted from all data points. The effect of a particular test compound concentration on cell proliferation and viability is expressed as percentage of the blank-corrected reading obtained for cells treated with vehicle only, which is set as 100%. IC50 values can be determined using XLfit (V4.2), applying standard four parameter logistic model #205 (IDBS, Guilford, UK) or other common curve-fitting software.
To achieve a higher throughput, the cell viability assay can also be performed in a 384-well format. Briefly, 4′500 freshly diluted cells are seeded in 54 μl/well into 384-well plates using a liquid dispenser. 6 μl 10× compound solution is added to the cell plate. As internal control, the kinase inhibitor PKC412 is routinely used. Control cells treated with DMSO (0.1% final concentration) serve as growth reference (set as 100% growth). In addition, a plate blank value is routinely determined in a well containing only 60 μl of medium and no cells. Dose-response effects are determined by 3-fold serial compound dilutions, starting at 10 μM. Following incubation of the cells for 48 h at 37° C. and 5% CO2, the effect of compounds on cell proliferation/viability is assessed by addition of 6 μl resazurin sodium salt dye solution per well. Following incubation for an additional 6 hrs at 37° C. and 5% CO2, fluorescence is measured using an Infiniti M1000 microplate reader (TECAN, Männedorf, Switzerland) with excitation and emission wavelengths set at 544 and 590 nm, respectively. For data analysis, the plate blank value is subtracted from all data points. IC50 values can be determined by four parameter logistic fitting as described above.
A general note: Alamar Blue is a resazurin reagent that responds to reducing activity.
In turn, `CC(=O)Nc1ccc(Cl)cc1N1CC[C@H](n2c(=N)n(Cc3cccc4[nH]ccc34)c3ccccc32)[C@@H](O)C1` (racemic) [Example 67.5, Rac-trans-N-(4-Chloro-2-{3-hydroxy-4-[2-imino-3-(1H-indol-4-ylmethyl)-2,3-dihydro-benzoimidazol-1-yl]-piperidin-1-yl}-phenyl)-acetamide] gave a half-maximal inhibitory concentration (IC50) of 0.03 µM.

Take `CC(=O)Nc1ccc(C)nc1N1CC[C@H](n2c(=N)n(Cc3cccc4[nH]ccc34)c3ccccc32)[C@@H](O)C1` (racemic) [Example 67.4, Rac-trans-N-{3-Hydroxy-4-[2-imino-3-(1H-indol-4-ylmethyl)-2,3-dihydro-benzoimidazol-1-yl]-6′-methyl-3,4,5,6-tetrahydro-2H-[1,2′]bipyridinyl-3′-yl}-acetamide]: the IC50 stood at 1.01 µM.

Regarding `COc1ccc(NC(C)=O)c(N2CCC(n3c(=N)n(Cc4cccc5[nH]ccc45)c4ccccc43)CC2)c1` [Example 56.1, N-(2-{4-[2-Imino-3-(1H-indol-4-ylmethyl)-2,3-dihydro-benzoimidazol-1-yl]-piperidin-1-yl}-4-methoxy-phenyl)-acetamide], the 50% inhibitory concentration (IC50) came out at 0.035 µM.

Take `CC(=O)Nc1ccc(C)nc1N1CC[C@H](n2c(=N)n(Cc3ccccc3Cl)c3ccc(F)cc32)[C@@H](O)C1` (racemic) [Example 67.2, Rac-trans-N-{4-[3-(2-Chloro-benzyl)-6-fluoro-2-imino-2,3-dihydro-benzoimidazol-1-yl]-3-hydroxy-6′-methyl-3,4,5,6-tetrahydro-2H-[1,2′]bipyridinyl-3′-yl}-acetamide]: half-maximal inhibition (IC50) was put at 0.062 µM.

Consider `CC(=O)Nc1ccc(C)nc1N1CCC(n2c(=N)n(Cc3ccccc3Cl)c3ccc(F)cc32)CC1` [Example 78, N-{4-[3-(2-Chloro-benzyl)-6-fluoro-2-imino-2,3-dihydro-benzoimidazol-1-yl]-6′-methyl-3,4,5,6-tetrahydro-2H-[1,2′]bipyridinyl-3′-yl}-acetamide], for which half-maximal inhibition (IC50) required 0.062 µM.

The compound `CC(=O)Nc1ccc(C(F)(F)F)cc1N1CCC(n2c(=N)n(Cc3cccc4[nH]nnc34)c3ccc(F)cc32)CC1` [Example 56.14, N-(2-{4-[3-(1H-Benzotriazol-4-ylmethyl)-6-fluoro-2-imino-2,3-dihydro-benzoimidazol-1-yl]-piperidin-1-yl}-4-trifluoromethyl-phenyl)-acetamide] had an IC50 of 0.023 µM.

Compound `CC(=O)/N=c1\n(Cc2cccc3[nH]ccc23)c2ccccc2n1C1CCN(c2cc(C)ccc2NC(C)=O)CC1` [Example 66, N-(2-{4-[2-Acetylimino-3-(1H-indol-4-ylmethyl)-2,3-dihydro-benzoimidazol-1-yl]-piperidin-1-yl}-4-methyl-phenyl)-acetamide] displayed a half-inhibitory concentration (IC50) of 0.18 µM.

`CC(=O)Nc1ccc(Cl)cc1N1CC[C@H](n2c(=N)n(Cc3ccccc3Cl)c3ccc(F)cc32)[C@@H](O)C1` (racemic) [Example 67.1, Rac-trans-N-(4-Chloro-2-{4-[3-(2-chloro-benzyl)-6-fluoro-2-imino-2,3-dihydro-benzo-imidazol-1-yl]-3-hydroxy-piperidin-1-yl}-phenyl)-acetamide] registered an IC50 of 0.01 µM.

In turn, `CC(=O)Nc1ccc(C#N)cc1N1CCC(n2c(=N)n(Cc3cccc4[nH]ccc34)c3ccccc32)CC1` [Example 56.4, N-(4-Cyano-2-{4-[2-imino-3-(1H-indol-4-ylmethyl)-2,3-dihydro-benzoimidazol-1-yl]-piperidin-1-yl}-phenyl)-acetamide] displayed an IC50 of 0.1 µM.

For the compound `CC(=O)Nc1ccc(C(F)(F)F)cc1N1CCC(n2c(=N)n(Cc3ccccc3Cl)c3ccccc32)CC1` [Example 56.7, N-(2-{4-[3-(2-Chloro-benzyl)-2-imino-2,3-dihydro-benzoimidazol-1-yl]-piperidin-1-yl}-4-trifluoromethyl-phenyl)-acetamide], the IC50 was determined as 0.069 µM.

Regarding `CC(=O)Nc1ccc(Cl)nc1N1CCC(n2c(=N)n(Cc3ccccc3Cl)c3ccc(F)cc32)CC1` [Example 77, N-{6′-Chloro-4-[3-(2-chloro-benzyl)-6-fluoro-2-imino-2,3-dihydro-benzoimidazol-1-yl]-3,4,5,6-tetrahydro-2H-[1,2′]bipyridinyl-3′-yl}-acetamide], half-maximal inhibition (IC50) required 0.068 µM.

The compound `CC(=O)Nc1ccc(Cl)cc1N1CCC(n2c(=N)n(Cc3ccccc3Cl)c3ccc(F)cc32)CC1` [Example 62, N-(4-Chloro-2-{4-[3-(2-chloro-benzyl)-6-fluoro-2-imino-2,3-dihydro-benzoimidazol-1-yl]-piperidin-1-yl}-phenyl)-acetamide] came in with an IC50 of 0.036 µM.

On to `CC(=O)Nc1ccc(Cl)cc1N1CC[C@H](n2c(=N)n(Cc3cccc4[nH]nnc34)c3ccc(F)cc32)[C@@H](O)C1` (racemic) [Example 67.6, Rac-trans-N-(2-{4-[3-(1H-Benzo-triazol-4-ylmethyl)-6-fluoro-2-imino-2,3-dihydro-benzoimidazol-1-yl]-3-hydroxy-piperidin-1-yl}-4-chloro-phenyl)-acetamide], for which half-maximal inhibition (IC50) was put at 0.517 µM.

Compound `CC(=O)Nc1ccc(C)nc1N1CCC(n2c(=N)n(Cc3cccc4[nH]ccc34)c3ccc(F)cc32)CC1` [Example 65, N-{4-[6-Fluoro-2-imino-3-(1H-indol-4-ylmethyl)-2,3-dihydro-benzoimidazol-1-yl]-6′-methyl-3,4,5,6-tetrahydro-2H-[1,2′]bipyridinyl-3′-yl}-acetamide] yielded a half-inhibitory concentration (IC50) of 0.005 µM.

On to `CC(=O)Nc1ccc(Cl)cc1N1CCC(n2c(=N)n(Cc3cccc4[nH]cnc34)c3ccc(F)cc32)CC1` [Example 64, N-(2-{4-[3-(1H-Benzoimidazol-4-ylmethyl)-6-fluoro-2-imino-2,3-dihydro-benzoimidazol-1-yl]-piperidin-1-yl}-4-chloro-phenyl)-acetamide], for which the IC50 was determined as 0.163 µM.

As for `CC(=O)Nc1ccc(C)cc1N1CCC(n2c(=N)n(Cc3cccc4[nH]ccc34)c3ccc(F)cc32)CC1` [Example 56.15, N-(2-{4-[6-Fluoro-2-imino-3-(1H-indol-4-ylmethyl)-2,3-dihydro-benzoimidazol-1-yl]-piperidin-1-yl}-4-methyl-phenyl)-acetamide], the IC50 came out at 0.041 µM.

The compound `CC(=O)Nc1ccc(C(F)(F)F)cc1N1CCC(n2c(=N)n(Cc3cccc4[nH]ccc34)c3ccccc32)CC1` [Example 56.3, N-(2-{4-[2-Imino-3-(1H-indol-4-ylmethyl)-2,3-dihydro-benzoimidazol-1-yl]-piperidin-1-yl}-4-trifluoromethyl-phenyl)-acetamide] displayed an IC50 of 0.052 µM.

Take `CC(=O)Nc1ccc(C#N)cc1N1CCC(n2c(=N)n(Cc3cccc4[nH]ccc34)c3ccc(F)cc32)CC1` [Example 56.11, N-(4-Cyano-2-{4-[6-fluoro-2-imino-3-(1H-indol-4-ylmethyl)-2,3-dihydro-benzoimidazol-1-yl]-piperidin-1-yl}-phenyl)-acetamide]: half-maximal inhibition (IC50) was put at 0.016 µM.

(Values after patent publication US20130085161A1, “PIPERIDINYL SUBSTITUTED 1,3-DIHYDRO-BENZOIMIDAZOL-2-YLIDENEAMINE DERIVATIVES” (NOVARTIS AG, priority 2010, published 2013).)
